What is called IC50 is the concentration that gives 50% inhibition. For orientation: melting point means the temperature of the solid-liquid transition.

The values that follow come from article PMC6767220, “Active Anti-Inflammatory and Hypolipidemic Derivatives of Lorazepam” (Molecules, 2019).

Read-outs that look alike come from different tables or passages of the source. Where only a bound is given, the exact number is not on record here.

In data set [1] the test system is inflammation. To be noted: cited from earlier work.
Data set [2] relates to inflammation. Further details: method as in PMID 25792646. The following applies: cited from earlier work.
The target of data set [3] is T1, soybean lipoxygenase-1 (Glycine max, UniProt P08170).
T1 sequence (P08170 1-839): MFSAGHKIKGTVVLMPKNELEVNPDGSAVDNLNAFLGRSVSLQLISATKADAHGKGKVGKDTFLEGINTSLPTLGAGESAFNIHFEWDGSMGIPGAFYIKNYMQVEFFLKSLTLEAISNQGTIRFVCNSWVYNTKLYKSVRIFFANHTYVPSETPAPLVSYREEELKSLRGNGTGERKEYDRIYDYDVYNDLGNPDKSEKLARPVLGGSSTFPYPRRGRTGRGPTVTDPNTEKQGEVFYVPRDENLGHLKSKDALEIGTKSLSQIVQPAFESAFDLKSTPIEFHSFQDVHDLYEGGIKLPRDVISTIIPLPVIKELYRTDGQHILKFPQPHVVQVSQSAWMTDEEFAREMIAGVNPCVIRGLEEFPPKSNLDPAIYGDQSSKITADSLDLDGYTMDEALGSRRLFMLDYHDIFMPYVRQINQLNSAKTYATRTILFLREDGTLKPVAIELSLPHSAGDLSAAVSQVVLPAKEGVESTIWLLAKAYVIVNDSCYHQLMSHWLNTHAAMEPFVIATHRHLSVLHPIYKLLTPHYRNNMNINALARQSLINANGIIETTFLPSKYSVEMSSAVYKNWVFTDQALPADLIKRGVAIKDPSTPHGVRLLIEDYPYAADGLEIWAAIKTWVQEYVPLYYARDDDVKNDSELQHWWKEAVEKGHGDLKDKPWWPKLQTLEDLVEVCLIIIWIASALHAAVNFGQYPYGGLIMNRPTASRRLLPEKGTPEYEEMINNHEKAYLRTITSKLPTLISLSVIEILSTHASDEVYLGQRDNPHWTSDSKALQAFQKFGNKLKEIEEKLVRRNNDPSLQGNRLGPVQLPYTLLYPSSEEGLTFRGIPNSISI
The data set is described as follows: Inhibition of soybean lipoxygenase. The following applies: sodium linoleate 0.1 mM, 7 min incubation; for IC50: read-out: Lipoxygenase IC50. The data set is classed as biochemical. As for the experimental part:
The reaction mixture contained the test compounds dissolved in ethanol and soybean lipoxygenase (250 U/mL) in Tris buffer (pH 9). The reaction was initiated by the addition of sodium linoleate (0.1 mM) and monitored for 7 min at 28 °C, by recording the absorbance of a conjugated diene structure at 234 nm. For the estimation of the type of inhibition, the above experiments were repeated, using sodium linoleate at 1 mM, which is higher than the saturating substrate concentration.

In data set [4] the test system is rat hepatic microsomal membrane lipid peroxidation. The data set is described as follows: Inhibition of rat hepatic microsomal membrane lipid peroxidation induced by ferrous ascorbate. It is filed as biochemical. The following applies: rat hepatic microsomal fraction, ferrous ascorbate, 45 min incubation. The procedure:
The incubation mixture contained heat-inactivated rat hepatic microsomal fraction, ascorbic acid (0.2 mM) in Tris–HCl/KCl buffer (pH 7.4) and the test compounds dissolved in dimethylsulphoxide. The reaction was initiated by FeSO4 (10 µM) and the mixture was incubated at 37 °C. Aliquots were taken at various time intervals for 45 min. Lipid peroxidation was assessed spectrophotometrically (535 against 600 nm) by the determination of 2-thiobarbituric acid (TBA) reactive material.

Data set [5] deals with Triton WR1339 (tyloxapol) induced hyperlipidemia. The data set is described as follows: Triton WR1339 (tyloxapol) induced hyperlipidemia: plasma TC, TG, LDL-C. It is filed as in vivo. The following applies: ip, rat plasma, 24 h, tyloxapol 200 mg/kg i.p.; for inhibition in vivo at 150 µmol/kg: dose i.p. 150 µmol/kg; for inhibition in vivo at 50 µmol/kg: dose i.p. 50 µmol/kg.
Data set [6] relates to carrageenan-induced rat paw oedema. The data set is described as follows: Carrageenan-induced rat paw oedema. To be noted: ip, i.p. 0.15 mmol/kg, 3.5 h post administration, vs controls, read-out: % Oedema Reduction. The data set is classed as in vivo. The procedure:
An aqueous solution of carrageenan was prepared (1% w/v) and 0.1 mL of this was injected i.d. into the right hind paw of female rats; the left paw served as control. The tested compounds (suspended in water with a few drops of Tween 80) were given intra peritoneally (i.p.) (0.15 mmol/kg) 5 min prior to the carrageenan injection. After 3.5 h the hind paws were weighed separately. The produced oedema was estimated as paw weight increase.

A short description of data set [7]: Interaction with the stable radical DPPH. To be noted: DPPH 200 µΜ, 30 min incubation. The procedure:
Compounds (in absolute ethanol, final concentration 50–200 µM) were added to an equal volume of an ethanolic solution of DPPH (final concentration 200 µM) at room temperature (22 ± 2 °C). Absorbance (517 nm) was recorded after 30 min [22].
A general note: The DPPH test is a chemical assay of radical scavenging.

The mark [8] stands for this setting: read-out: % Reduction LDL-C (LDL cholesterol).
The mark [9] stands for this setting: read-out: % Reduction TC (total cholesterol).
Setting [10] is: read-out: % Reduction TG (triglycerides).

Consider `Cc1cc(C(C)(C)C)c(O)c(C(C)(C)C)c1` [BHT, 2,6-di-tert-butyl-4-methylphenol], for which, in data set [1], the “Anti-inflammatory action in vivo” value is on record as “lacks such action”. The “Anti-inflammatory action in vitro” value in data set [2] was “lacks such action”. Also, in data set [3], the half-inhibitory concentration (IC50) is 192 µM.
In turn, `Cc1c(C)c2c(c(C)c1O)CCC(C)(C(=O)OC1N=C(c3ccccc3Cl)c3cc(Cl)ccc3NC1=O)O2` (stereo not drawn) [Compound 7, 7-Chloro-5-(2-chlorophenyl)-2-oxo-2,3-dihydro-1H-benzo[e][1,4]diazepin-3-yl 6-hydroxy-2,5,7,8-tetramethylchroman-2-carboxylate] showed a melting point of 138 to 144 °C. In addition, 2.5 µM corresponded to half-maximal inhibition in data set [4] (IC50). The inhibition in vivo at 150 µmol/kg in data set [5] (setting [8]) worked out at 69%. Besides, the inhibition in vivo at 150 µmol/kg in data set [5] (setting [9]) amounted to 72%. Besides, in data set [5] (setting [10]), the inhibition in vivo at 150 µmol/kg was found to be 64%. The inhibition in vivo at 150 µmol/kg in data set [6] is 56%. Besides, the “Percent Interaction with DPPH” value in data set [7] (compound 50 µΜ) is listed as 46%. Further, the “Percent Interaction with DPPH” value in data set [7] (compound 100 µΜ) stood at 82%. Also, the “Percent Interaction with DPPH” value in data set [7] (compound 200 µΜ) was determined as 91%. For the same compound, the “Lipoxygenase IC50” value in data set [3] was “-”.
Turning to `CC(C)(C)c1cc(C=CC(=O)OC2N=C(c3ccccc3Cl)c3cc(Cl)ccc3NC2=O)cc(C(C)(C)C)c1O` (stereo not drawn) [Compound 8, (E)-7-Chloro-5-(2-chlorophenyl)-2-oxo-2,3-dihydro-1H-benzo[e][1,4]diazepin-3-yl 3-(3,5-di-tert-butyl-4-hydroxyphenyl)acrylate], the melting point stood at 274 °C. This compound yielded an IC50 in data set [4] of more than 100 µM. In data set [5] (setting [8]), the inhibition in vivo at 50 µmol/kg was determined as 44% and the inhibition in vivo at 150 µmol/kg is 63%. Moreover, in data set [5] (setting [9]), the inhibition in vivo at 50 µmol/kg is 59% and the inhibition in vivo at 150 µmol/kg came out at 81%. For the same compound, in data set [5] (setting [10]), the inhibition in vivo at 50 µmol/kg worked out at 52% and the inhibition in vivo at 150 µmol/kg stood at 66%. Further, the inhibition in vivo at 150 µmol/kg in data set [6] is 37%. The “Percent Interaction with DPPH” value in data set [7] (compound 50 µΜ) stood at 30%. Moreover, in data set [7] (compound 100 µΜ), the “Percent Interaction with DPPH” value came to 49%. For the same compound, the “Percent Interaction with DPPH” value in data set [7] (compound 200 µΜ) came to 90%. In data set [3], the 50% inhibitory concentration (IC50) was found to be 44 µM.
With `O=C(O)CCCC[C@@H]1CCSS1` [lipoic acid, (R)-5-(1,2-dithiolan-3-yl)pentanoic acid], the Anti-inflammatory action entry in data set [1] (at similar doses) is on record as “weak anti-inflammatory agent”.
